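In this assay, cells in 96-well plates receive the compound at five concentrations for 48 hours. Endpoints are linearly interpolated between the surrounding concentrations. Abbreviation: GI50, concentration required for 50% inhibition of growth.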 Activity calls are given as the source filed them. Rule as the data show it: active = GI50 up to about 1.1 µM and inactive = higher.
Tests used:
Experiment in all cases: growth of human tumour cells (NCI), 48 h
HOP-92 = test system: HOP-92
M14 = test system: M14
HL-60 = test system: HL-60
SK-MEL-2 = test system: SK-MEL-2
DU-145 = test system: DU-145
HCT-15 = test system: HCT-15
SK-OV-3 = test system: SK-OV-3
RXF 393 = test system: RXF 393
UO-31 = test system: UO-31
SF-539 = test system: SF-539
SNB-75 = test system: SNB-75
SW-620 = test system: SW-620
MDA-MB-231 = test system: MDA-MB-231
OVCAR-5 = test system: OVCAR-5
K562 = test system: K562
A549 = test system: A549
SK-MEL-28 = test system: SK-MEL-28
KM12 = test system: KM12
UACC-257 = test system: UACC-257
CAKI-1 = test system: CAKI-1

SMILES	GI50 (HOP-92)	GI50 (M14)	GI50 (HL-60)	GI50 (SK-MEL-2)	GI50 (DU-145)	GI50 (HCT-15)	GI50 (SK-OV-3)	GI50 (RXF 393)	GI50 (UO-31)	GI50 (SF-539)	GI50 (SNB-75)	GI50 (SW-620)	GI50 (MDA-MB-231)	GI50 (OVCAR-5)	GI50 (K562)	GI50 (A549)	GI50 (SK-MEL-28)	GI50 (KM12)	GI50 (UACC-257)	GI50 (CAKI-1)
Cc1nnc(CC#N)n1NC(=O)CC#N	> 100 µM (inactive)	> 100 µM (inactive)	> 100 µM (inactive)	> 100 µM (inactive)	> 100 µM (inactive)	> 100 µM	> 100 µM (inactive)	> 100 µM (inactive)	> 100 µM (inactive)	> 100 µM (inactive)	> 100 µM (inactive)	> 100 µM (inactive)	> 100 µM (inactive)	> 100 µM (inactive)	> 100 µM (inactive)	> 100 µM (inactive)	> 100 µM (inactive)	> 100 µM (inactive)	> 100 µM (inactive)	> 100 µM (inactive)
COc1ccc(/N=C/C=C/Nc2ccc(OC)cc2)cc1	15.3 µM (inactive)	11 µM (inactive)	2.87 µM (inactive)	16.4 µM (inactive)	18.7 µM (inactive)	4.65 µM	19.7 µM (inactive)	7.67 µM (inactive)	5.64 µM (inactive)	9.64 µM (inactive)	16.9 µM (inactive)	2.69 µM (inactive)	2.38 µM (inactive)	15.5 µM (inactive)	8.13 µM (inactive)	12.1 µM (inactive)	15.2 µM (inactive)	4.54 µM (inactive)	7.35 µM (inactive)	3.78 µM (inactive)
O=C(NCCCCCCNC(=O)n1cc(F)c(=O)[nH]c1=O)NCCCOCCOCCOCCOCCOCCOCCOCCOCCOCCOCCOCCOCCOCCOCCOCCOCCOCCOCCOCCOCCOCCCNC(=O)C(O)C(O)C(O)C(O)CO (stereo not given)	> 18.4 µM (inactive)	75.3 µM (inactive)	20.8 µM (inactive)	> 100 µM (inactive)	25.4 µM (inactive)	21 µM	> 100 µM (inactive)	43.2 µM (inactive)	20.9 µM (inactive)	1.81 µM (inactive)	73.1 µM (inactive)	53.8 µM (inactive)	> 100 µM (inactive)	> 96.4 µM (inactive)	34.8 µM (inactive)	6.52 µM (inactive)	16.3 µM (inactive)	31.7 µM (inactive)	> 90.2 µM (inactive)	22.5 µM (inactive)
CCCCOCOc1ccccc1P1(=O)COc2ccccc2OC1	74.1 µM (inactive)	83.9 µM (inactive)	34.7 µM (inactive)	> 100 µM (inactive)	> 100 µM (inactive)	87.1 µM	> 100 µM (inactive)	37.8 µM (inactive)	38.7 µM (inactive)	> 100 µM (inactive)	> 100 µM (inactive)	> 100 µM (inactive)	43.4 µM (inactive)	> 100 µM (inactive)	52.2 µM (inactive)	88.5 µM (inactive)	> 100 µM (inactive)	> 100 µM (inactive)	67.3 µM (inactive)	> 100 µM (inactive)
Oc1cc(O)c2c(c1)OC(c1ccc(O)c(O)c1)C(OC1(c3cc(O)c(O)c(O)c3)Oc3cc(O)cc(O)c3C(O)C1O)C2 (stereo not given)	29.6 µM (inactive)	24.7 µM (inactive)	21.7 µM (inactive)	24.5 µM (inactive)	> 49 µM (inactive)	36 µM	> 65.5 µM (inactive)	73.5 µM (inactive)	18 µM (inactive)	32.1 µM (inactive)	26.4 µM (inactive)	24.8 µM (inactive)	19.7 µM (inactive)	21.8 µM (inactive)	21.1 µM (inactive)	27.7 µM (inactive)	> 40.6 µM (inactive)	26.1 µM (inactive)	37.4 µM (inactive)	29.8 µM (inactive)

— ChEMBL document CHEMBL1201862, “PubChem BioAssay data set” (2004)
